Assay results: patent publication US10961189B2, “Spiro-lactam NMDA receptor modulators and uses thereof” (Aptinyx Inc., priority 2016, dated 2021)
Where two headings read alike, the source gives them in different places.

Assays:
[1] = system: rats; assay: positive emotional learning (PEL) test, 50-kHz ultrasonic vocalizations; format: in vivo, rat; settings: PO, dose .1 mg/kg, one hour after administration
Description: Experiments were conducted as described in Burgdorf et al., “The effect of selective breeding for differential rates of 50-kHz ultrasonic vocalizations on emotional behavior in rats,” Devel. Psychobiol., 51:34-46 (2009). Rat 50-kHz ultrasonic vocalization (hedonic USVs) is a validated model for the study of positive affective state and is best elicited by rough-and-tumble play.
The PEL assay measures the acquisition of positive (hedonic) 50-kHz ultrasonic vocalizations (USVs) to a social stimulus, heterospecific rough and tumble play stimulation. Heterospecific rough-and-tumble play stimulation was administered by the experimenter's right hand. One hour after administration of test compound or vehicle negative control (0.5% sodium carboxymethyl cellulose in […] sterile saline), animals received 3 min of heterospecific rough-and-tumble play that consisted of alternating 15 sec blocks of heterospecific play and 15 sec of no-stimulation. High frequency ultrasonic vocalizations (USVs) were recorded and analyzed by sonogram with Avasoft SASlab Pro (Germany) as previously described by Burgdorf et al., “Positive emotional learning is regulated in the medial prefrontal cortex by GluN2B-containing NMDA receptors,” Neuroscience, 192:515-523 (2011). Frequency modulated 50-kHz USVs that occurred during each of the no-stimulation periods were quantified to measure PEL. Animals were not habituated to play stimulation before testing. Positive emotional learning was measured during the conditioned stimulus (CS) trials preceding the tickle unconditioned stimulus (UCS) trials. Animals received 15 second trials consisting of 6 CS and 6 UCS trials each (3 min total).
The table below summarizes the findings. As each experiment includes its own vehicle group, an example (typical) vehicle score is shown. Max effect (mean number of 50 kHz USVs per 15 seconds) is reported as ^: <6.0; *: 6-10.9; **: 11-16.9; ***: 17-22.

[2] = molecular target: T1, NMDAR2A (Homo sapiens, UniProt Q12879); assay: [3H]MK-801 binding in NMDAR expressing HEK cell membranes (facilitation of NMDAR activation); format: biochemical; settings: 50 μM glutamate; for EC50: read-out: B: log EC50 (converted); for Emax: 0.25 h, read-out: A: % maximal [3H]MK-801 binding relative to 1 mM glycine
T1 construct: expressed in transfected cells; host or cells: HEK cells (membrane extract)
T1 sequence (Q12879 23-1464, species assumed, other chains not shown): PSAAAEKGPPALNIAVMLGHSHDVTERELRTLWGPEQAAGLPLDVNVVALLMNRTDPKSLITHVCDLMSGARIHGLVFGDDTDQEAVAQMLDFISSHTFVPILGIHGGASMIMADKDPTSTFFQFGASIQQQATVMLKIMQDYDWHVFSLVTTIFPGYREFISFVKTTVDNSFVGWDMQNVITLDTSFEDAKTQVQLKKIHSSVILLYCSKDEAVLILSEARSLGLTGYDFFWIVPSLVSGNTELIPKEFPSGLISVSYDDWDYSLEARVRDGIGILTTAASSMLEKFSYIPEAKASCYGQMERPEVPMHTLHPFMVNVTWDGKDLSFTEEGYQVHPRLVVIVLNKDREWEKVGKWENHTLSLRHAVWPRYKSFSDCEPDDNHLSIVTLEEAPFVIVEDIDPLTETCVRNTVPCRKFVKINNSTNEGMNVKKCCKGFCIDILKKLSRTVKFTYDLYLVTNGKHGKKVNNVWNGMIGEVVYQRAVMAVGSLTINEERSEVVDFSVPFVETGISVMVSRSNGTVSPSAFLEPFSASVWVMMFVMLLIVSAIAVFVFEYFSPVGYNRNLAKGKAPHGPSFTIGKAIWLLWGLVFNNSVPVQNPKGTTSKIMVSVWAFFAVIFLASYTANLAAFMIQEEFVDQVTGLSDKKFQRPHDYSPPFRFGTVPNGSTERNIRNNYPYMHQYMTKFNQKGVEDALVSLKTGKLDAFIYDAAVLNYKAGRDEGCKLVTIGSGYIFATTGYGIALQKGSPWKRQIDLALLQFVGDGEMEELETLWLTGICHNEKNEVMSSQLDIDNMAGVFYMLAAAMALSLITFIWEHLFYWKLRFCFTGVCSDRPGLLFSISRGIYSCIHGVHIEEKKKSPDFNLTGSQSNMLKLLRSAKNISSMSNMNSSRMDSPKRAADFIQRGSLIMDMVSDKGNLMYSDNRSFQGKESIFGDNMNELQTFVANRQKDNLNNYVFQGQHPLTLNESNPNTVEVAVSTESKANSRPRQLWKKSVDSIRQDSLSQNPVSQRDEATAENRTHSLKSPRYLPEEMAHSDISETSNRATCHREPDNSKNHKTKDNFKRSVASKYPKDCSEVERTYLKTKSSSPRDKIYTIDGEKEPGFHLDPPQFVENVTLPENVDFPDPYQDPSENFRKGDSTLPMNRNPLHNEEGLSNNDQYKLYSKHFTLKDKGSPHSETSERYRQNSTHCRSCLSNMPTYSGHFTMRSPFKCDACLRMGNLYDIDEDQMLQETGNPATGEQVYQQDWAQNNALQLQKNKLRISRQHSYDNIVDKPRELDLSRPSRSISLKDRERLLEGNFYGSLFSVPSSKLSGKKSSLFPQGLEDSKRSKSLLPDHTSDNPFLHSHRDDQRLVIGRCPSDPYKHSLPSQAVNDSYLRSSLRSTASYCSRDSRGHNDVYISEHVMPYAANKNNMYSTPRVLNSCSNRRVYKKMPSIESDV
Description: (§1) Assays were conducted as described by Moskal et al., “GLYX-13: a monoclonal antibody-derived peptide that acts as an N-methyl-D-aspartate receptor modulator,” Neuropharmacology, 49, 1077-87, 2005. These studies were designed to determine if the test compounds act to facilitate NMDAR activation in NMDAR2A, NMDAR2B, NMDAR2C or NMDAR2D expressing HEK cell membranes as measured by increases in [^3H]MK-801 binding.
(§2) In the assay, 300 μg of NMDAR expressing HEK cell membrane extract protein was preincubated for 15 minutes at 25° C. in the presence of saturating concentrations of glutamate (50 μM) and varying concentrations of test compound (1×10^15M−1×10^−7M), or 1 mM glycine. Following the addition of 0.3 μCi of [^3H]MK-801 (22.5 Ci/mmol), reactions were again incubated for 15 minutes at 25° C. (nonequilibrium conditions). Bound and free [^3H]MK-801 were separated via rapid filtration using a Brandel apparatus.
(§3) In analyzing the data, the DPM (disintegrations per minute) of [^3H]MK-801 remaining on the filter were measured for each concentration of test compound or for 1 mM glycine. The DPM values for each concentration of a ligand (N=2) were averaged. The baseline value was determined from the best fit curve of the DPM values modeled using the GraphPad program and the log(agonist) vs. response (three parameters) algorithm was then subtracted from all points in the dataset. The % maximal [^3H]MK-801 binding was then calculated relative to that of 1 mM glycine: all baseline subtracted DPM values were divided by the average value for 1 mM glycine. The EC50 and % maximal activity were then obtained from the best fit curve of the % maximal [^3H]MK-801 binding data modelled using the GraphPad program and the log(agonist) vs. response (three parameters) algorithm.
(§4) The tables below summarize the results for the wild type NMDAR agonists NMDAR2A, NMDAR2B, NMDAR2C, and NMDAR2D, and whether the compound is not an agonist (−), is an agonist (+), or is a strong agonist (++), where column A is based on the % maximal [^3H]MK-801 binding relative to 1 mM glycine (−=0; <100%=+; and >100%=++); and column B is based on log EC50 values (0=−; ≥1×10^−9 M (e.g., −8)=+; and <1×10^−9 M (e.g., −10)=++).

[3] = molecular target: T2, NMDAR2B (Homo sapiens, UniProt Q13224); assay: as above; format: biochemical; settings: 50 μM glutamate; for EC50: read-out: B: log EC50 (converted); for Emax: 0.25 h, read-out: A: % maximal [3H]MK-801 binding relative to 1 mM glycine
T2 construct: expressed in transfected cells; host or cells: HEK cells (membrane extract)
T2 sequence (Q13224 27-1484, species assumed, other chains not shown): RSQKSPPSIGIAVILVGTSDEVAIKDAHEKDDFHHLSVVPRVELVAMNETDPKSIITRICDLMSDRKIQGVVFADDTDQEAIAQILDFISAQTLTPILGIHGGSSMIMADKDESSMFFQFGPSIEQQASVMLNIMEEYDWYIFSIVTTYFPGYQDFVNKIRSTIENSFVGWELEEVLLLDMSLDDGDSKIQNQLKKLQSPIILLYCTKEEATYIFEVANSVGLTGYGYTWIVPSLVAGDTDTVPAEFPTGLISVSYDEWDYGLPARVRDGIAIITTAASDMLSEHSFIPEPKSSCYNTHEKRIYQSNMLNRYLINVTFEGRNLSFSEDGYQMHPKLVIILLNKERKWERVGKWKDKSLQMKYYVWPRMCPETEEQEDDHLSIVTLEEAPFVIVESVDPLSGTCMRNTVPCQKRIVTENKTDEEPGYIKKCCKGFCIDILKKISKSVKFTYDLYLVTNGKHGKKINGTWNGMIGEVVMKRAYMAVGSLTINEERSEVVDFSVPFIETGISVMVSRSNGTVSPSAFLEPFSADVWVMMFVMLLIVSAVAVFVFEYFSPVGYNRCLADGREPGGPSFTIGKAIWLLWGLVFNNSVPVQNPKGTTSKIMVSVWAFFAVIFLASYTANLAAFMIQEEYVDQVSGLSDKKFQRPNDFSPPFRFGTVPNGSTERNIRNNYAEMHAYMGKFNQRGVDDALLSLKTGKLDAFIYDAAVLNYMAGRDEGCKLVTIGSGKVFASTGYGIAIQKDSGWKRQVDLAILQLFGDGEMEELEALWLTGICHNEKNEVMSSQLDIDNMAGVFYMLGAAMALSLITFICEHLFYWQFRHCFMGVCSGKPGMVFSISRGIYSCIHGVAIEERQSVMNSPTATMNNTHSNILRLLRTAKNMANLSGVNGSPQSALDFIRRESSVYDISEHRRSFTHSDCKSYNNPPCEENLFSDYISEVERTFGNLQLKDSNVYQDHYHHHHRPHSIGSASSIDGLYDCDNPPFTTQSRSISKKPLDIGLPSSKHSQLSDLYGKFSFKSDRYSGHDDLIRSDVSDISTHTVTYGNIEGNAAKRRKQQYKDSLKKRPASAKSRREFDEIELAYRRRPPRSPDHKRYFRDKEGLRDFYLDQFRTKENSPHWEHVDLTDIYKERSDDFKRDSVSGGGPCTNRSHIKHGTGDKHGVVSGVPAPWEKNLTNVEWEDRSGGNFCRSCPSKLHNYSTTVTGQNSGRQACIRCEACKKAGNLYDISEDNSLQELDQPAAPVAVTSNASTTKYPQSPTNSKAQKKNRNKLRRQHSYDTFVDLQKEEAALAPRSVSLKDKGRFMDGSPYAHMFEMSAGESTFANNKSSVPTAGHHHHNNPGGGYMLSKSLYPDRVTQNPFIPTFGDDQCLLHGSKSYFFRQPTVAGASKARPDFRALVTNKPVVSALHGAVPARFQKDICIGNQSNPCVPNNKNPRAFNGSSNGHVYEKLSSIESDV
Description: as §1, §2, §3, §4

[4] = IV pharmacokinetics; format: in vivo, Sprague Dawley rats; settings: rat, normal saline (* in 5% NMP, 5% Solutol HS, 90% normal saline); for AUC(0-t) / half-life / C0 / Vd: Sprague-Dawley, in vivo, iv; for C0: read-out: C0; for Vd: read-out: Vss; for CI: intravenous 2 mg/kg
Source text: The table below summarizes the results of the IV pharmacokinetics.

[5] = oral pharmacokinetics (plasma, brain, CSF); format: in vivo, Sprague Dawley rats; settings: rat, per os 10 mg/kg; for Tmax: normal saline (* in 5% NMP, 5% Solutol HS, 90% normal saline)
Description: In another experiment, Sprague Dawley rats were dosed per os using a normal saline formulation containing 10 mg/kg of the compounds identified in the table below (except for the compounds marked with an asterisk (“*”) that were delivered in 5% NMP, 5% Solutol® HS and 90% normal saline formulation). Plasma, brain, and CSF samples were analyzed at various time points over a 24 hour period.

[6] = system: Sprague Dawley rats; assay: Porsolt forced swim test; format: in vivo, rat; settings: 0.1 mg/kg
Description: A non-clinical in vivo pharmacology study (Porsolt assay) was performed to measure antidepressant-like effects. A negative control (0.5% sodium carboxymethyl cellulose in 0.9% sterile saline vehicle) and a positive control (fluoxetine) are shown for comparison against test compound. The study allowed for the evaluation of the effects of each compound on the Porsolt forced swim test as assessed by the rats' response (reduced floating time) during a 5-minute swimming test.
(§5) Male 2-3 month old Sprague Dawley rats were used (Harlan, Indianapolis, Ind.). Rats were housed in Lucite cages with aspen wood chip bedding, maintained on a 12:12 light:dark cycle (lights on at 5 AM), and given ad libitum access to Purina lab chow (USA) and tap water throughout the study.
The Porsolt forced swim test adapted for use in rats was performed as described by Burgdorf et al., (The long-lasting antidepressant effects of rapastinel (GLYX-13) are associated with a metaplasticity process in the medial prefrontal cortex and hippocampus. Neuroscience 308:202-211, 2015). Animals were placed in a 46 cm tall×20 cm in diameter clear glass tube filled to 30 cm with tap water (23±1° C.) for 15 min on the first day (habituation) and 5 min on the subsequent test day. Positive control fluoxetine was dosed 3 times (24 h, 5 h and 1 h) prior to testing. Animals were tested 1 h or 24 h post-dosing with the test compounds or vehicle. Animals received a 15 min habituation session 1 day before the 5 min test. A subset of compounds tested at 1 h post-dosing were retested at 1 wk post-dosing in the same sets of animals. Water was changed after every other animal. Animals were videotaped, and floating time as defined as the minimal amount of effort required to keep the animals head above water was scored offline by a blinded experimenter with high inter-rater reliability (Pearson's r>0.9).
Each compound tested at dose level shown. Significance vs. vehicle group for each experiment is marked. […] A compound marked “No” was not statistically significant from vehicle. Data was averaged for test compound and vehicle groups (N approximately 8 per group) and the percent reduction in floating for group treated with test compound relative to group treated with vehicle is shown.

[7] = system: Sprague Dawley rats; assay: Bennett model of mechanical analgesia (sciatic nerve chronic constriction, paw withdrawal threshold); format: in vivo, rat; settings: 10 mg/kg PO;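 note: log paw withdrawal threshold scaled from vehicle group mean (0%) to naive 15 g value (100%)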
Description: The Bennett model of mechanical analgesia is used to assess the analgesic effects of compounds as measured by paw withdrawal threshold. Bennett GJ, Xie YK, “A peripheral mononeuropathy in rat that produces disorders of pain sensation like those seen in man,” Pain 33:87-107, 1988. […] Vehicle animals receive the surgery and then receive vehicle rather than test compound. Animals were tested 1 hr, 24 h and 1 wk post-test compound or vehicle administration.
as §5, with “used. Harlan was the supplier for all studies.” for “used (Harlan, Indianapolis, Ind.).”
Rats were anesthetized using inhaled isoflurane (2.5%). Sciatic nerve chronic constriction nerve injury surgery was performed as previously described (Bennett and Xie, 1988). An incision (˜1.5 cm in length) was made with a scalpel blade dorsally through skin on the right hind limb, parallel and posterior to femur. Using a small pointed hemostat, the biceps femoris and gluteus superficialis muscles were separated. Using curved blunt forceps, the common sciatic nerve was isolated and exposed. For the mechanical analgesia studies, the whole sciatic nerve was ligated. Using hemostats/forceps and chromic gut (5-0), the nerve was loosely ligated with a square knot; 3 ligatures, 1 mm apart were placed on the nerve. […] Testing occurred approximately 2 weeks post-surgery.
During testing, rats were acclimated to the surface of a suspended wire mesh grid (1 cm×1 cm, with the wire being 0.3 cm in diameter) for 15-20 min. Starting from the smallest, each Von Frey filament was pressed perpendicularly to the plantar surface of the affected (ipsilateral) hind paw until slightly bent and then held for 6 second. If an obvious hind paw withdrawal or a flinching behavior immediately after the withdrawal of the filament was not observed, the next larger filament was used in the same manner. In case of a response, a lower filament was used. This was repeated until six responses were collected.
For all studies, animals were baselined prior to study start to test for allodynia (defined as a paw withdrawal threshold under 5). A subset of animals was tested with gabapentin (150 mg/kg, PO) to ensure at least 50% analgesia. Once it was confirmed animals were ready for study initiation, animals were balanced across groups. All study investigators were blind to treatment conditions. Animals were dosed with 0.1, 1 or 10 mg/kg of test compound via oral gavage (PO), control sets of animals were dosed with gabapentin (150 mg/kg, PO) or vehicle (0.5% Na-CMC in 0.9% sterile saline, PO). Testing occurred 1 h post-dosing with animals retested 24 hrs and 1 week post-dosing. The percent analgesia calculations for each animal were made using the following equation: % analgesia=[(log(x)−y)/((log (z)−y)]*100, where x=the paw withdrawal threshold for the drug-treated animal in grams, y=the average of the log(x) values for the vehicle treated group, and z=the paw withdrawal threshold for naïve animals in grams (historical value of 15 used).
The results are shown in the table below where the percentage of analgesia is measured at 1 hour, 24 hours, and 1 week after compound administration. Since each study had its own gabapentin control group, an example gabapentin control value is shown.

[8] = Sprague-Dawley, plasma, po, 10 mg/kg
[9] = Sprague-Dawley, plasma, po, 10 mg/kg, read-out: Tmax
[10] = Sprague-Dawley, plasma, po, 10 mg/kg, plasma, read-out: Cmax

Compound	Max Effect (mean number of 50 kHz USVs per 15 seconds) [1]	EC50 [2] [nM]	EC50 [3] [nM]	AUC(0-t) ([4]; 2 mg/kg) [ng·h/mL]	half-life ([4]; 2 mg/kg) [h]	C0 ([4]; 2 mg/kg) [ng/mL]	Vd ([4]; 2 mg/kg) [L/kg]	CSF Cmax [5] [ng/mL]	Emax [2] [%]	Emax [3] [%]	Tmax [5, 9] [h]	Cmax [5, 10] [ng/mL]	other results
C[C@@H](O)[C@H](NC1CCC2(CC1)CNC2=O)C(N)=O (single isomer, unassigned) [AQ]	** (**: 11-16.9)	≥ 1	< 1	2290	3.84	3990	1.22	65.84					A: % maximal [3H]MK-801 binding relative to 1 mM glycine [2]: + (<100%=+); A: % maximal [3H]MK-801 binding relative to 1 mM glycine [3]: + (<100%=+); CI ([4]; 2 mg/kg): 14.64 mL/min/kg; % F [5]: 16%; Brain Cmax ([5]; brain): 29.91 ng/mL; Tmax [5]: 1 h; AUClast ([5]; plasma): 1805.63 ng·h/mL; Cmax ([5]; plasma): 499.27 ng/mL
O=C1NCC12CCCCC2 [Compound AB, 2-azaspiro[3.5]nonan-1-one]		≥ 1	< 1	2650	3.42	2050	1.13		< 100	< 100	0.42	7690	CI [4]: 16.1 mL/min/kg; AUC(0-t) [5, 8]: 11600 ng·h/mL; bioavailability [5, 8]: 88%; % reduction in float time ([6]; 1 h post-dose): 73.2%; Significance vs. vehicle ([6]; 1 h post-dose): Yes (statistically significant (p<=0.05) from vehicle at dose level shown); % reduction in float time ([6]; 24 h post-dose): 79.90%; Significance vs. vehicle ([6]; 24 h post-dose): Yes (statistically significant (p<=0.05) from vehicle at dose level shown)
C[C@@H](O)[C@@H](C(N)=O)N1CC2(CCC(F)(F)CC2)C1=O [Compound AO, (2S,3R)-2-(7,7-difluoro-1-oxo-2-azaspiro[3.5]nonan-2-yl)-3-hydroxybutanamide]	* (*: 6-10.9)		< 1					1676.3	0	< 100	1	7310	% analgesia ([7]; 1 wk): 18.2%; % analgesia ([7]; 1 h): 23.7%; % analgesia ([7]; 24 h): 7.5%
